The results in this text go back to ChEMBL document CHEMBL1641371, “Peptide deformylase inhibitors with non-peptide scaffold: synthesis and structure-activity relationships” (Bioorg Med Chem Lett, 2011).

Experiment [1] has as its target T1, Peptide deformylase (Pseudomonas aeruginosa (strain ATCC 15692 / PAO1 / 1C / PRS 101 / LMG12228), UniProt Q9I7A8).
T1 sequence (Q9I7A8 whole entry): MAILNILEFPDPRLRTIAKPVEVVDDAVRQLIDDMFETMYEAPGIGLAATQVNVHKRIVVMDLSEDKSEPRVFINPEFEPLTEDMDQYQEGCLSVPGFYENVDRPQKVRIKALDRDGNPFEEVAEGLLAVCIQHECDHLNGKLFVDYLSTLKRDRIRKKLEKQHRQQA
The experiment in a line: Inhibition of Pseudomonas aeruginosa peptide deformylase after 10 mins by fluorescence assay.

In experiment [2] the test system is Staphylococcus aureus. Nature of the experiment: Antimicrobial activity against Staphylococcus aureus ATCC 6538p after 24 hrs by microtiter plate assay. In kind it is functional.
The subject of experiment [3] is Moraxella catarrhalis. The experiment in a line: Antimicrobial activity against Moraxella catarrhalis ATCC 43617 after 48 hrs by microtiter plate assay. In kind it is functional. The note with it: ATCC 43617, 48 h.
The test system of experiment [4] is Haemophilus influenzae. The experiment in a line: Antimicrobial activity against Haemophilus influenzae ATCC 51907 after 24 hrs by microtiter plate assay. The format is functional. To be noted: ATCC 51907, 24 h.
In experiment [5] the test system is Streptococcus pneumoniae. Nature of the experiment: Antimicrobial activity against Streptococcus pneumoniae ATCC 6305 after 48 hrs by microtiter plate assay. The format is functional. The note with it: ATCC 6305, 48 h.

In brackets after ≈: the same amount, converted by molar mass.

Usually IC50 stands for the concentration that gives 50% inhibition. A low value points to greater potency in that assay. Molecule `CCCC[C@H](CN(O)C=O)C(=O)[C@@H]1CCCN1C(=O)OC(C)(C)C` gave an IC50 in experiment [1] of 169 nM. Besides, the MIC in experiment [2] worked out at 12.5 µg/mL (≈ 36.5 µM); in experiment [3], 0.4 µg/mL (≈ 1.17 µM); in experiment [4], 0.4 µg/mL (≈ 1.17 µM); in experiment [5] it was 6.3 µg/mL (≈ 18.4 µM).
`COc1ccccc1NC(=O)N[C@@H](C(=O)N(CC(=O)NO)CC1CCCC1)C(C)(C)C` had an IC50 in experiment [1] of 29 nM. The MIC in experiment [2] came to 50 µg/mL (≈ 115 µM); in experiment [3] it was 0.1 µg/mL (≈ 0.23 µM); in experiment [4], 0.2 µg/mL (≈ 0.46 µM); in experiment [5] it was 0.2 µg/mL (≈ 0.46 µM).
As to `CCCC[C@H](CN(O)C=O)C(=O)[C@@H](NC(=O)Nc1ccccc1F)C(C)C`, the IC50 in experiment [1] was 41 nM. Besides, the MIC in experiment [2] came out at 0.4 µg/mL (≈ 1.05 µM); in experiment [3], 0.1 µg/mL (≈ 0.262 µM); in experiment [4], 0.1 µg/mL (≈ 0.262 µM); in experiment [5], 0.2 µg/mL (≈ 0.524 µM).
Consider `CCCC[C@H](CN(O)C=O)C(=O)[C@@H](NC(=O)c1ccccn1)C(C)C`, for which, in experiment [1], the IC50 was found to be 117 nM. Further, the MIC in experiment [2] came to 1.6 µg/mL (≈ 4.58 µM); in experiment [3], 0.1 µg/mL (≈ 0.286 µM); in experiment [4], 0.1 µg/mL (≈ 0.286 µM); in experiment [5], 0.2 µg/mL (≈ 0.572 µM).
Consider `CCCC[C@H](CN(O)C=O)C(=O)[C@H](NC(=O)OC(C)(C)C)C(C)(C)C`, for which the IC50 in experiment [1] stood at 603 nM. The MIC in experiment [2] was found to be 100 µg/mL (≈ 279 µM); in experiment [3] it was 0.1 µg/mL (≈ 0.279 µM); in experiment [4], 3.2 µg/mL (≈ 8.93 µM); in experiment [5] it was 6.3 µg/mL (≈ 17.6 µM).
Take `CCCC[C@H](CN(O)C=O)C(=O)[C@H](C)NC(=O)OC(C)(C)C`: the IC50 in experiment [1] was 330 nM. Moreover, the MIC is 12.5 µg/mL (≈ 39.5 µM) in experiment [2], 1.6 µg/mL (≈ 5.06 µM) in experiment [3], 0.8 µg/mL (≈ 2.53 µM) in experiment [4] and 3.2 µg/mL (≈ 10.1 µM) in experiment [5].
As to `CCCC[C@H](CN(O)C=O)C(=O)[C@@H](NC(=O)Nc1ccccc1)C(C)C`, half-maximal inhibition in experiment [1] (IC50) was put at 49 nM. The MIC in experiment [2] was 1.6 µg/mL (≈ 4.4 µM); in experiment [3] it was 0.1 µg/mL (≈ 0.275 µM); in experiment [4], 0.4 µg/mL (≈ 1.1 µM); in experiment [5], 0.4 µg/mL (≈ 1.1 µM).
As to `CCCC[C@H](CN(O)C=O)C(=O)[C@@H](NC(=O)c1ccc2ccccc2n1)C(C)C`, the IC50 in experiment [1] was determined as 8 nM. In addition, the MIC in experiment [2] is 0.4 µg/mL (≈ 1 µM); in experiment [3], 0.1 µg/mL (≈ 0.25 µM); in experiment [4] it was 0.2 µg/mL (≈ 0.501 µM); in experiment [5], 0.1 µg/mL (≈ 0.25 µM).
Molecule `CCCC[C@H](CN(O)C=O)C(=O)[C@@H](NC(=O)C(C)C)C(C)C` returned an IC50 in experiment [1] of 60 nM. Moreover, the MIC was determined as 3.2 µg/mL (≈ 10.2 µM) in experiment [2], 1.6 µg/mL (≈ 5.09 µM) in experiment [3], 0.2 µg/mL (≈ 0.636 µM) in experiment [4] and 0.8 µg/mL (≈ 2.54 µM) in experiment [5].
Consider `CCCC[C@H](CN(O)C=O)C(=O)[C@@H](NC(=O)c1nccc2ccccc12)C(C)C`, for which, in experiment [1], the half-maximal inhibitory concentration (IC50) amounted to 5 nM. Further, the MIC in experiment [2] stood at 6.4 µg/mL (≈ 16 µM); in experiment [3], 0.1 µg/mL (≈ 0.25 µM); in experiment [4] it was 0.4 µg/mL (≈ 1 µM); in experiment [5] it was 0.4 µg/mL (≈ 1 µM).
Take `CCCC[C@H](CN(O)C=O)C(=O)[C@@H](NC(=O)c1cccc(F)c1)C(C)C`: the IC50 in experiment [1] is 43 nM. Moreover, the MIC in experiment [2] worked out at 1.6 µg/mL (≈ 4.37 µM); in experiment [3], 1.6 µg/mL (≈ 4.37 µM); in experiment [4], 0.2 µg/mL (≈ 0.546 µM); in experiment [5], 0.4 µg/mL (≈ 1.09 µM).
In the case of `CCCC[C@H](CN(O)C=O)C(=O)[C@@H](NC(=O)c1ccncc1)C(C)C`, half-maximal inhibition in experiment [1] (IC50) was put at 52 nM. The MIC in experiment [2] worked out at 1.6 µg/mL (≈ 4.58 µM); in experiment [3], 0.1 µg/mL (≈ 0.286 µM); in experiment [4], 0.1 µg/mL (≈ 0.286 µM); in experiment [5] it was 0.4 µg/mL (≈ 1.14 µM).
In experiment [1], `CCCC[C@H](CN(O)C=O)C(=O)[C@@H](NC(=O)OC(C)(C)C)C(C)C` gave an IC50 of 183 nM. The MIC amounted to 12.5 µg/mL (≈ 36.3 µM) in experiment [2], 0.1 µg/mL (≈ 0.29 µM) in experiment [3], 1.6 µg/mL (≈ 4.65 µM) in experiment [4] and 1.6 µg/mL (≈ 4.65 µM) in experiment [5].
`CCCC[C@H](CN(O)C=O)C(=O)[C@@H](NC(=O)NC(C)C)C(C)C` came in with an IC50 in experiment [1] of 16 nM. The MIC in experiment [2] is 1.6 µg/mL (≈ 4.86 µM); in experiment [3], 0.8 µg/mL (≈ 2.43 µM); in experiment [4], 0.1 µg/mL (≈ 0.304 µM); in experiment [5], 0.4 µg/mL (≈ 1.21 µM).
Take `CCCC[C@H](CN(O)C=O)C(=O)[C@@H](NC(=O)c1cccnc1)C(C)C`: 73 nM corresponded to half-maximal inhibition in experiment [1] (IC50). The MIC is 0.8 µg/mL (≈ 2.29 µM) in experiment [2], 0.1 µg/mL (≈ 0.286 µM) in experiment [3], 0.1 µg/mL (≈ 0.286 µM) in experiment [4] and 0.2 µg/mL (≈ 0.572 µM) in experiment [5].
In experiment [1], `CCCC[C@H](CN(O)C=O)C(=O)[C@@H](NC(=O)c1cccc(OC)c1)C(C)C` showed a half-inhibitory concentration (IC50) of 22 nM. For the same molecule, the MIC is 0.8 µg/mL (≈ 2.11 µM) in experiment [2], 0.8 µg/mL (≈ 2.11 µM) in experiment [3], 0.2 µg/mL (≈ 0.528 µM) in experiment [4] and 0.2 µg/mL (≈ 0.528 µM) in experiment [5].
On to `CCCC[C@H](CN(O)C=O)C(=O)[C@@H](NC(=O)Nc1ccccc1OC)C(C)C`, for which, in experiment [1], half-maximal inhibition (IC50) required 41 nM. Moreover, the MIC worked out at 0.8 µg/mL (≈ 2.03 µM) in experiment [2], 0.1 µg/mL (≈ 0.254 µM) in experiment [3], 0.2 µg/mL (≈ 0.508 µM) in experiment [4] and 0.1 µg/mL (≈ 0.254 µM) in experiment [5].
On to `CCCC[C@H](CN(O)C=O)C(=O)[C@@H](NC(=O)c1ccccc1)C(C)C`, for which the IC50 in experiment [1] was determined as 51 nM. The MIC in experiment [2] was 3.2 µg/mL (≈ 9.18 µM); in experiment [3], 0.4 µg/mL (≈ 1.15 µM); in experiment [4] it was 0.2 µg/mL (≈ 0.574 µM); in experiment [5] it was 3.2 µg/mL (≈ 9.18 µM).
`CCCC[C@H](CN(O)C=O)C(=O)[C@@H](NC(=O)NC1CCCC1)C(C)C` showed an IC50 in experiment [1] of 10 nM. Moreover, the MIC amounted to 1.6 µg/mL (≈ 4.5 µM) in experiment [2], 0.1 µg/mL (≈ 0.281 µM) in experiment [3], 0.2 µg/mL (≈ 0.563 µM) in experiment [4] and 1.6 µg/mL (≈ 4.5 µM) in experiment [5].
For the molecule `CCCC[C@H](CN(O)C=O)C(=O)[C@@H](NC(=O)Nc1ccccn1)C(C)C`, the half-maximal inhibitory concentration (IC50) in experiment [1] amounted to 43 nM. The MIC in experiment [2] came out at 0.8 µg/mL (≈ 2.2 µM); in experiment [3], 0.1 µg/mL (≈ 0.274 µM); in experiment [4], 0.1 µg/mL (≈ 0.274 µM); in experiment [5] it was 1.6 µg/mL (≈ 4.39 µM).
